Laboratory results published in US6677277B1, “Substituted sulphonyl amino(thio)carbonyl compounds and their use as herbicides” (Bayer Aktiengesellschaft, priority 1996, dated 2004).

Experiments:
Format in all cases: in vivo
Stellaria = experiment: Post-emergence test/greenhouse; details: 60 g ai./ha, after three weeks
Description: (§1) Post-emergence Test Solvent: 5 parts by weight of acetone Emulsifier: 1 part by weight of alkylaryl polyglycol ether To produce a suitable preparation of active compound, 1 part by weight of active compound is mixed with the stated amount of solvent, the stated amount of emulsifier is added and the concentrate is diluted with water to the desired concentration. Test plants which have a height of 5-15 cm are sprayed with the preparation of the active compound in such a way as to apply the particular amounts of active compound desired per unit area. The concentration of the spray liquor is chosen so that the particular amounts of active compound desired are applied in 1000 l of water/ha. After three weeks, the degree of damage to the plants is rated in % damage in comparison to the development of the untreated control. The figures denote: [table]

Sorghum [1] = experiment: Post-emergence test/greenhouse; details: 60 g ai./ha; for Sorghum, % damage: Table B-4, post-emergence, rated after three weeks vs untreated control
Description: as §1

Ipomoea = experiment: Post-emergence test/greenhouse; details: 60 g ai./ha, after three weeks
Description: as §1

Solanum [2] = experiment: Post-emergence test/greenhouse; details: for % damage, Solanum: post-emergence, after three weeks; for Solanum, % damage: Table B-4, post-emergence, rated after three weeks vs untreated control
Description: as §1

Alopecurus [3] = experiment: Post-emergence test/greenhouse; details: 60 g ai./ha, after three weeks
Description: as §1

Lolium [4] = experiment: Post-emergence test/greenhouse; details: 60 g ai./ha, after three weeks
Description: as §1

Wheat [5] = experiment: Post-emergence test/greenhouse; details: after three weeks
Description: as §1

weeds [6] = experiment: Pre-emergence test; details: cf. Tables A-1 to A-5
Description: (§2) Pre-emergence Test Solvent: 5 parts by weight of acetone Emulsifier: 1 part by weight of alkylaryl polyglycol ether To produce a suitable preparation of active compound, 1 part by weight of active compound is mixed with the stated amount of solvent, the stated amount of emulsifier is added and the concentrate is diluted with water to the desired concentration. Seeds of the test plants are sown in normal soil. After about 24 hours, the soil is sprayed with the preparation of the active compound in such a way as to apply the particular amounts of active compound desired per unit area The concentration of the spray liquor is chosen so that the particular amounts of active compound desired are applied in 1000 l of water/ha. After three weeks, the degree of damage to the plants is rated in % damage in comparison to the development of the untreated control. The figures denote: [table]

weeds [7] = experiment: Post-emergence test; details: cf. Tables B-1 to B-4
Description: as §1

Sorghum [8] = experiment: Pre-emergence test/greenhouse; details: 125 g ai./ha, after three weeks
Description: as §2

Viola = experiment: Pre-emergence test/greenhouse; details: 125 g ai./ha, after three weeks
Description: as §2

Alopecurus [9] = experiment: Pre-emergence test/greenhouse; details: after three weeks
Description: as §2

Chenopodium = experiment: Pre-emergence test/greenhouse; details: after three weeks
Description: as §2

Matricaria [10] = experiment: Pre-emergence test/greenhouse; details: 125 g ai./ha, after three weeks
Description: as §2

Cotton = experiment: Pre-emergence test/greenhouse; details: after three weeks
Description: as §2

Amaranthus [11] = experiment: Pre-emergence test/greenhouse; details: after three weeks
Description: as §2

Maize = experiment: Pre-emergence test/greenhouse; details: 125 g ai./ha, after three weeks
Description: as §2

Xanthium = experiment: Post-emergence test/greenhouse; details: for Xanthium, % damage: Table B-4, post-emergence, 60 g ai./ha, rated after three weeks vs untreated control
Description: as §1

Amaranthus [12] = experiment: Post-emergence test/greenhouse; details: for Amaranthus, % damage: Table B-4, post-emergence, 60 g ai./ha, rated after three weeks vs untreated control
Description: as §1

Echinochloa [13] = experiment: Post-emergence test/greenhouse; details: Table B-4, post-emergence, 60 g ai./ha, rated after three weeks vs untreated control
Description: as §1, with “Emulsifier:” for “Post-emergence Test Solvent: 5 parts by weight of acetone Emulsifier:”, “control.” for “control. The figures denote: [table]”

Matricaria [14] = experiment: Post-emergence test/greenhouse; details: 125 g ai./ha, after three weeks
Description: as §1

Solanum [15] = experiment: Pre-emergence test/greenhouse; details: 125 g ai./ha, after three weeks
Description: as §2

Lolium [16] = experiment: Pre-emergence test/greenhouse; details: 125 g ai./ha, after three weeks
Description: as §2

Echinochloa [17] = experiment: Pre-emergence test/greenhouse; details: after three weeks
Description: as §2

Veronica = experiment: Pre-emergence test/greenhouse; details: after three weeks
Description: as §2

Wheat [18] = experiment: Pre-emergence test/greenhouse; details: after three weeks
Description: as §2

Bromus = experiment: Pre-emergence test/greenhouse; details: after three weeks
Description: as §2

[19] = post-emergence, 125 g ai./ha, after three weeks

COc1cccc(SC(C)C)c1S(=O)(=O)NC(=O)n1nc(OC)n(C)c1=O [Example 24]
% damage, Stellaria (Stellaria): 95%
% damage, Sorghum (Sorghum [1]; post-emergence, after three weeks): 90%
% damage, Ipomoea (Ipomoea): 90%
% damage, Solanum (Solanum [2]; 60 g ai./ha): 95%
% damage, Alopecurus (Alopecurus [3]): 90%
% damage, Lolium (Lolium [4]): 60%
% damage, Wheat (Wheat [5]; 60 g ai./ha): 15%
activity against weeds (weeds [6]): very strong activity
activity against weeds (weeds [7]): very strong activity
% damage, Sorghum (Sorghum [8]): 70%
% damage, Viola (Viola): 100%
% damage, Alopecurus (Alopecurus [9]; 125 g ai./ha): 95%
% damage, Chenopodium (Chenopodium; 125 g ai./ha): 100%
% damage, Matricaria (Matricaria [10]): 70%
% damage, Cotton (Cotton; 125 g ai./ha): 0%
% damage, Amaranthus (Amaranthus [11]; 125 g ai./ha): 100%
% damage, Maize (Maize): 0%

COc1nn(C(=O)NS(=O)(=O)c2c(SC)cccc2SC)c(=O)n1C [Example 50]
Xanthium, % damage (Xanthium): 95%
Sorghum, % damage (Sorghum [1]): 95%
Solanum, % damage (Solanum [2]; 60 g ai./ha): 95%
Amaranthus, % damage (Amaranthus [12]): 95%
activity against weeds (weeds [7]): very strong activity
Echinochloa, % damage (Echinochloa [13]): 80%

CCOc1nn(C(=O)NS(=O)(=O)c2c(C)cccc2SCC)c(=O)n1C [Example 56]
% damage, Xanthium (Xanthium; [19]): 100%
% damage, Solanum (Solanum [2]; 125 g ai./ha): 100%
% damage, Matricaria (Matricaria [14]): 100%
% damage, Amaranthus (Amaranthus [12]; [19]): 100%
% damage, Wheat (Wheat [5]; 125 g ai./ha): 10%
activity against weeds (weeds [7]): very strong activity

CCOc1nn(C(=O)NS(=O)(=O)c2c(OC)cccc2SCCF)c(=O)n1C [Example 59]
Xanthium, % damage (Xanthium): 95%
Sorghum, % damage (Sorghum [1]): 100%
Solanum, % damage (Solanum [2]; 60 g ai./ha): 90%
Amaranthus, % damage (Amaranthus [12]): 100%
activity against weeds (weeds [6]): very strong activity
activity against weeds (weeds [7]): very strong activity
% damage, Sorghum (Sorghum [8]): 100%
% damage, Solanum (Solanum [15]): 100%
% damage, Alopecurus (Alopecurus [9]; 125 g ai./ha): 100%
% damage, Chenopodium (Chenopodium; 125 g ai./ha): 100%
% damage, Lolium (Lolium [16]): 100%
% damage, Matricaria (Matricaria [10]): 100%
% damage, Amaranthus (Amaranthus [11]; 125 g ai./ha): 100%
Echinochloa, % damage (Echinochloa [13]): 100%

CCOc1nn(C(=O)NS(=O)(=O)c2c(SC(C)(C)C)cccc2C(F)(F)F)c(=O)n1C [Example 60]
activity against weeds (weeds [6]): very strong activity
% damage, Echinochloa (Echinochloa [17]; 125 g ai./ha): 100%
% damage, Veronica (Veronica; 125 g ai./ha): 100%
% damage, Alopecurus (Alopecurus [9]; 125 g ai./ha): 90%
% damage, Chenopodium (Chenopodium; 125 g ai./ha): 100%
% damage, Cotton (Cotton; 125 g ai./ha): 20%
% damage, Amaranthus (Amaranthus [11]; 125 g ai./ha): 100%
% damage, Wheat (Wheat [18]; 125 g ai./ha): 0%
% damage, Bromus (Bromus; 125 g ai./ha): 95%

COc1nn(C(=O)NS(=O)(=O)c2c(SC)cccc2C(F)(F)F)c(=O)n1C [Example 61]
activity against weeds (weeds [6]): very strong activity
% damage, Echinochloa (Echinochloa [17]; 60 g ai./ha): 100%
% damage, Veronica (Veronica; 60 g ai./ha): 80%
% damage, Alopecurus (Alopecurus [9]; 60 g ai./ha): 95%
% damage, Chenopodium (Chenopodium; 60 g ai./ha): 100%
% damage, Cotton (Cotton; 60 g ai./ha): 0%
% damage, Amaranthus (Amaranthus [11]; 60 g ai./ha): 100%
% damage, Wheat (Wheat [18]; 60 g ai./ha): 30%
% damage, Bromus (Bromus; 60 g ai./ha): 100%
